In PMC9596378, “Discovery and molecular basis of subtype-selective cyclophilin inhibitors” (Nature Chemical Biology, 2022):
Read-outs that look alike come from different tables or passages of the source. Each block holds one compound with its values, some of them ahead of it.

Legend:
[1] = target: T1, CypD K118E/R124A (Homo sapiens, UniProt P30405, K118E/R124A); test: Chymotrypsin coupled prolyl-isomerase assay; assay type: biochemical
T1 construct: made in house; host or cells: E. coli BL21(DE3)
T1 sequence (P30405 45-207 K118E/R124A): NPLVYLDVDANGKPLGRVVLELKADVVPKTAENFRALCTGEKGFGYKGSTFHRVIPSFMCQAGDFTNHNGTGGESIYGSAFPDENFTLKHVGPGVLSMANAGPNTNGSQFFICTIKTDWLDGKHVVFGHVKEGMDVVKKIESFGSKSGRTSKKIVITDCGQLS
In short: (§1)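 Steps: cyclophilin plus compound 5 min at 2–3 °C; α-chymotrypsin added, 5 min more; Suc-AAPF-AMC substrate in LiCl/trifluoroethanol injected and fluorescence followed 330 s. Finals: 5 nM enzyme, 25 µM chymotrypsin, 5 µM substrate, 0.25% DMSO.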

[2] = target: T2, CypE K218A (Homo sapiens, UniProt Q9UNP9, K218A); test: Chymotrypsin coupled prolyl-isomerase assay; assay type: biochemical
T2 construct: Lane 6- GS-CypE K218A (131-301);; His6 tag with thrombin site (pET28a LIC); GS remnant stays on the N-terminus (N, cleaved yes); host or cells: E. coli BL21(DE3)
T2 sequence (Q9UNP9 131-301 K218A): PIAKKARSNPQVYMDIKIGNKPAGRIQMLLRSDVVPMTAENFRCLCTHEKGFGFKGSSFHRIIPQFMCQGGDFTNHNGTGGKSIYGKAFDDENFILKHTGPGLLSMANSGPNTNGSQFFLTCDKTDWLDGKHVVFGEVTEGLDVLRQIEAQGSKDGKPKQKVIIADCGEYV
In short: as §1

[3] = target: T3, CypE K217A (Homo sapiens, UniProt Q9UNP9, K217A); test: Chymotrypsin coupled prolyl-isomerase assay; assay type: biochemical
T3 construct: Lane 5- GS-CypE K217A (131-301);; His6 tag with thrombin site (pET28a LIC); GS remnant stays on the N-terminus (N, cleaved yes); host or cells: E. coli BL21(DE3)
T3 sequence (Q9UNP9 131-301 K217A): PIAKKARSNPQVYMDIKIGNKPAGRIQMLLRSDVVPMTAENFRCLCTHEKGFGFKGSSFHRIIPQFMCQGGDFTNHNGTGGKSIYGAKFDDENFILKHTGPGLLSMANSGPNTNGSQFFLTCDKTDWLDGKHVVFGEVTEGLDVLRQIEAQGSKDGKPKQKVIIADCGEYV
In short: as §1

[4] = target: T4, CypE K212A (Homo sapiens, UniProt Q9UNP9, K212A); test: Chymotrypsin coupled prolyl-isomerase assay; assay type: biochemical; conditions: mutant CypE K212A; read-out: Mutant Cyclophilin Prolyl Isomerase Inhibition IC50 Values, CypE K212A
T4 construct: Lane 4- GS-CypE K212A (131-301);; His6 tag with thrombin site (pET28a LIC); GS remnant stays on the N-terminus (N, cleaved yes); host or cells: E. coli BL21(DE3)
T4 sequence (Q9UNP9 131-301 K212A): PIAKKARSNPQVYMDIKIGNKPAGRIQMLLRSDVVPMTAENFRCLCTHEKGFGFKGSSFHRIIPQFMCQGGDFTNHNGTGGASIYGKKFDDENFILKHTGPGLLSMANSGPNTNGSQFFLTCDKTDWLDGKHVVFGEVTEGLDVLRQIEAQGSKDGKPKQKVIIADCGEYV
In short: as §1

[5] = target: Cyp40 (Homo sapiens, UniProt Q08752); test: Competition anisotropy binding assay with A26-Fl; set-up: PPID (UniProtKB Entry Q08752: residues 1–183); made in house; host or cells: E. coli BL21(DE3); conditions: FP competition with 0.5 nM A26-Fl, 24 h
Chain of Cyp40 (Q08752 1-183): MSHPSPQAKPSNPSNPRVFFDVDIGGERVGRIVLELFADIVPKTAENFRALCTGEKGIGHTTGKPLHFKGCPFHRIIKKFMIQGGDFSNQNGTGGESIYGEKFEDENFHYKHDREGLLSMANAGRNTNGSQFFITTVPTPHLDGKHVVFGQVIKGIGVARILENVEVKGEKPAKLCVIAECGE
Experimental: (§2) Adapted from previous work[52], cyclophilin in assay buffer (25 mM HEPES pH 8.0, 100 mM NaCl, 0.01% Triton X-100) at a pre-determined concentration from Supplementary Table 6 was incubated with 0.5 nM A26-Fl for 10 min at room temperature in a flat-bottom black untreated 96-well plate (Corning). Competitor macrocycle was then added to each well and incubated for 24 h. Final assay volume was 100 µL with 0.25% DMSO. Fluorescence anisotropy was then measured using a Tecan Spark plate reader using 492 nm/523 nm excitation/emission settings.

[6] = target: CypD (Homo sapiens, UniProt P30405); test: Competition anisotropy binding assay with A26-Fl; set-up: PPIF (UniProtKB Entry P30405: residues 45–207); made in house; host or cells: E. coli BL21(DE3); conditions: FP competition with 0.5 nM A26-Fl, 24 h
Chain of CypD (P30405 45-207): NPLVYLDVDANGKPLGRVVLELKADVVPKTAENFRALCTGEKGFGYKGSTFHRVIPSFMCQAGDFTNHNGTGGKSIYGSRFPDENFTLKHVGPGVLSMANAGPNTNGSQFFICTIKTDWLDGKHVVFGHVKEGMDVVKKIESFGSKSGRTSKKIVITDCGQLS
Experimental: as §2

[7] = target: T5, CypB (Homo sapiens, UniProt P23284); test: Competition anisotropy binding assay with A26-Fl; conditions: FP competition with 0.5 nM A26-Fl, 24 h
T5 construct: PPIB (UniProtKB Entry P23284: residues 34–216); His6 with TEV site (2BT vector leader) (N); made in house; host or cells: E. coli BL21(DE3)
T5 sequence (P23284 34-216): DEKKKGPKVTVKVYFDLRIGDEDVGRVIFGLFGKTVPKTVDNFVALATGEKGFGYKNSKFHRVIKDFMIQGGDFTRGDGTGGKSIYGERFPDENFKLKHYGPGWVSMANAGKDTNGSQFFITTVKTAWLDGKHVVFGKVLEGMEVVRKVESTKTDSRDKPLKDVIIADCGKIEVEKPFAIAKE
Experimental: as §2

[8] = target: T6, PPIL3 (Homo sapiens, UniProt Q9H2H8); test: Competition anisotropy binding assay with A26-Fl; conditions: FP competition with 0.5 nM A26-Fl, 24 h
T6 construct: PPIL3 (UniProtKB Entry Q9H2H8: residues 1–161); His6 tag with TEV site (2BT vector); SNA remnant stays on the N-terminus (N, cleaved yes); made in house; host or cells: E. coli BL21(DE3)
T6 sequence (Q9H2H8 whole entry, the tested form may be a part): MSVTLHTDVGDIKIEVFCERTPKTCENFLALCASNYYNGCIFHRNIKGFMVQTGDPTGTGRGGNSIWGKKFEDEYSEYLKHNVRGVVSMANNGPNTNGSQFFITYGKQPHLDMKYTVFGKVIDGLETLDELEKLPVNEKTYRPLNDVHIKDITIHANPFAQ
Experimental: as §2

[9] = target: T4, CypE K212A; test: Competition anisotropy binding assay with A26-Fl; conditions: FP competition with 0.5 nM A26-Fl, 24 h
Experimental: as §2

[10] = target: T7, His6-CypD (Homo sapiens, UniProt P30405); test: Surface plasmon resonance analysis of CypD ligands; assay type: binding; conditions: immobilized CypD; read-out: KD CypD (SPR)
T7 construct: PPIF (UniProtKB Entry P30405: residues 45–207); made in house; host or cells: E. coli BL21(DE3)
T7 sequence (P30405 45-207): as the sequence (P30405 45-207) above
Experimental: Adapting a previously used protocol, employing a Biacore T200 SPR, a Sensor S NTA (Biacore) chip was pre-loaded with 0.3 M NiCl2 and His6-CypD (50.24 nM, 1 µg mL^−1) within a solution of 10 mM HEPES, 150 mM NaCl, 0.005% Tween-20 and 1 mM TCEP (surface plasmon resonance (SPR) buffer). Protein was covalently immobilized subsequently with injection of 200 mM 1-ethyl-3-(3-dimethylaminopropyl)carbodiimide (EDC) 50 mM N-hydroxysuccinimide (NHS). EDC–NHS-activated chip was quenched by flowing 1 M ethanolamine over the chip. Compounds were dissolved in 1% DMSO/SPR buffer and flowed over the SPR chip. Binding analysis was conducted from raw sensorgram resonance unit (RU) values, where individual replicates represent kinetic fitted RU value during time of compound administration at each dose. RU values were normalized to DMSO treatment and the maximum RU value of 200 µM JOMBt. These values were evaluated using Prism v.9 by fitting one site-specific binding to calculate KD values.

SMILES: NCCCc1ccc(-c2ccc(C[C@@H]3NC(=O)[C@]4(Cc5ccccc5)CCCN(C4)C(=O)/C=C/C(=O)NCC[C@@H](C(=O)NCCOCCN)NC(=O)Cc4ccccc4CNC3=O)cc2)cc1 [Compound B32]
- potency improvement on CypD K118E/R124A compared to wild-type CypD [1]: 100 fold
- preference for CypD K118E/R124A over PPWD1 ([1]; prolyl-isomerase IC50): at least 13 fold
- selectivity for CypD K118E/R124A over CypA ([1]; prolyl-isomerase IC50): > 100 fold
- IC50 ([1]; prolyl-isomerase inhibition): 60 nM

SMILES: NC(=O)C1CCNC(=O)C=CC(=O)N2CCCC(Cc3ccccc3)(C2)C(=O)NC(Cc2ccc(-c3ccc(C=O)c(B(O)O)c3)cc2)C(=O)NCc2ccccc2CC(=O)N1 (stereo not drawn) [Compound C3A]
- IC50 ([2]; mutant CypE K218A, read-out: Mutant Cyclophilin Prolyl Isomerase Inhibition IC50 Values, CypE K218A): 2000 nM
- IC50 ([2]; prolyl-isomerase inhibition, read-out: IC50 CypE K218A): 19 ± 3 nM
- less potent at inhibiting K217A prolyl-isomerase activity compared to wild-type CypE [3]: 150 fold
- IC50 ([3]; mutant CypE K217A, read-out: Mutant Cyclophilin Prolyl Isomerase Inhibition IC50 Values, CypE K217A): 19 nM
- IC50 [4]: 30 nM
- Ki [5]: > 10000 nM
- Ki [6]: 520 nM
- Ki [7]: 5600 nM
- Ki [8]: > 10000 nM
- Ki [9]: 98 nM

- Kd [10]: 19000 nM
SMILES: NCCOCCNC(=O)C1CCNC(=O)C=CC(=O)N2CCCC(C2)C(=O)NC(Cc2ccco2)C(=O)NCc2ccccc2CC(=O)N1 (stereo not drawn) [JOMBt]
